From the supplement of paper PMC5908809

What was measured:
[1] = tested on: normal NK cells expanded with K562-aAPC; assay: percent inhibition of viability; higher = more inhibition; details: 72 h, IL-2 2.5 ng/mL
Method: (§1)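 Drug sensitivity and resistance testing on K562-aAPC-expanded normal NK cells: 5 concentrations (10-fold steps over a 10,000-fold range), 72 h at 37 °C, viability by CellTiter-Glo normalised to DMSO and benzethonium chloride controls; DSS from the fitted curve.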

DERL-7 (IL-2 2.5 ng/mL) [2] = assay: as above; details: 72 h
IMC-1 (IL-2 20 ng/mL) [3] = assay: as above; details: 72 h
KAI3 (IL-2 2.5 ng/mL) [4] = assay: as above; details: 72 h
KHYG-1 (IL-2 2.5 ng/mL) [5] = assay: as above; details: 72 h
NK-92 (IL-2 2.5 ng/mL) [6] = assay: as above; details: 72 h
NK-YS (IL-2 2.5 ng/mL) [7] = assay: as above; details: 72 h
NKL (IL-2 2.5 ng/mL) [8] = assay: as above; details: 72 h
SNK-6 (IL-2 2.5 ng/mL) [9] = assay: as above; details: 72 h
YT (IL-2 2.5 ng/mL) [10] = assay: as above; details: 72 h
[11] = tested on: normal primary NK cells, pool 1 (3 donors) (IL-2 2.5 ng/mL); assay: as above; details: 72 h
[12] = tested on: normal primary NK cells, pool 1 (3 donors), resting (IL-2 0 ng/mL); assay: as above; details: 72 h
[13] = tested on: normal primary NK cells, pool 2 (3 donors) (IL-2 2.5 ng/mL); assay: as above; details: 72 h
[14] = tested on: normal primary NK cells, pool 3 (3 donors) (IL-2 2.5 ng/mL); assay: as above; details: 72 h
[15] = tested on: normal NK cells expanded with K562-aAPC; assay: drug sensitivity score (DSS) (DSS units); higher = more sensitive; extreme values may be limits of the assay; details: 72 h; IL-2 2.5 ng/mL
Method: as §1

DERL-7 (IL-2 2.5 ng/mL) [16] = assay: as above; details: 72 h
IMC-1 (IL-2 20 ng/mL) [17] = assay: as above; details: 72 h
KAI3 (IL-2 2.5 ng/mL) [18] = assay: as above; details: 72 h
KHYG-1 (IL-2 2.5 ng/mL) [19] = assay: as above; details: 72 h
NK-92 (IL-2 2.5 ng/mL) [20] = assay: as above; details: 72 h
NK-YS (IL-2 2.5 ng/mL) [21] = assay: as above; details: 72 h
NKL (IL-2 2.5 ng/mL) [22] = assay: as above; details: 72 h
SNK-6 (IL-2 2.5 ng/mL) [23] = assay: as above; details: 72 h
YT (IL-2 2.5 ng/mL) [24] = assay: as above; details: 72 h
[25] = tested on: normal primary NK cells, pool 1 (3 donors) (IL-2 2.5 ng/mL); assay: as above; details: 72 h
[26] = tested on: normal primary NK cells, pool 1 (3 donors), resting (IL-2 0 ng/mL); assay: as above; details: 72 h
[27] = tested on: normal primary NK cells, pool 2 (3 donors) (IL-2 2.5 ng/mL); assay: as above; details: 72 h
[28] = tested on: normal primary NK cells, pool 3 (3 donors) (IL-2 2.5 ng/mL); assay: as above; details: 72 h

CC[C@H](CC#N)OC(=O)N[C@@H](C)c1cccc(NC(=O)Nc2ccc(-c3cnco3)c(OC)c2)c1 [AVN944] (max concentration tested 10000 nM)
percent inhibition of viability [%]
Details	1 nM	10 nM	100 nM	1000 nM	10000 nM
DERL-7 (IL-2 2.5 ng/mL) [2]	1.82	-0.51	46.2	89.3	94.2
IMC-1 (IL-2 20 ng/mL) [3]	-3.38	0.07	-49.7	74.7	93.8
KAI3 (IL-2 2.5 ng/mL) [4]	3.06	5.82	42.7	101	97.7
KHYG-1 (IL-2 2.5 ng/mL) [5]	-0.31	1.95	46.9	96.4	96.2
NK-92 (IL-2 2.5 ng/mL) [6]	-6.77	-7.92	21.9	101	94.4
NK-YS (IL-2 2.5 ng/mL) [7]	1.24	-1.29	45.5	94.6	94
NKL (IL-2 2.5 ng/mL) [8]	-10.6	-12.7	32.8	81.2	72.3
SNK-6 (IL-2 2.5 ng/mL) [9]	6.47	13.1	56.5	91	96.5
YT (IL-2 2.5 ng/mL) [10]	1.64	0.89	25.8	83.2	83.1
[1]	-4.47	-3.33	15.6	41.6	39.1
[11]	-6.01	-11.6	1.98	6.68	27.3
[12]	-10.3	-2.43	27.4	7.53	62.7
[13]	-12.8	-4.58	1.01	5.56	16.6
[14]	-8.77	-6.21	4.2	12.5	18.4

Details	drug sensitivity score
DERL-7 (IL-2 2.5 ng/mL) [16]	22.3
IMC-1 (IL-2 20 ng/mL) [17]	13.5
KAI3 (IL-2 2.5 ng/mL) [18]	23.1
KHYG-1 (IL-2 2.5 ng/mL) [19]	23.1
NK-92 (IL-2 2.5 ng/mL) [20]	21.5
NK-YS (IL-2 2.5 ng/mL) [21]	22.9
NKL (IL-2 2.5 ng/mL) [22]	19.2
SNK-6 (IL-2 2.5 ng/mL) [23]	24.3
YT (IL-2 2.5 ng/mL) [24]	18.9
[15]	9.68
[25]	2.1
[26]	4.7
[27]	0.8
[28]	1.47

CC[C@]1(O)C[C@H]2CN(CCc3c([nH]c4ccccc34)[C@@](C(=O)OC)(c3cc4c(cc3OC)N(C=O)[C@H]3[C@@](O)(C(=O)OC)[C@H](OC(C)=O)[C@]5(CC)C=CCN6CC[C@]43[C@@H]65)C2)C1 [Vincristine] (max concentration tested 1000 nM)
percent inhibition of viability [%]
Details	0.1 nM	1 nM	10 nM	100 nM	1000 nM
DERL-7 (IL-2 2.5 ng/mL) [2]	-4.76	-3.31	99.7	100	99.9
IMC-1 (IL-2 20 ng/mL) [3]	-6.56	-3.8	99.6	101	101
KAI3 (IL-2 2.5 ng/mL) [4]	-2.89	0.47	50	71.7	82.8
KHYG-1 (IL-2 2.5 ng/mL) [5]	-4.8	0.56	99.8	108	109
NK-92 (IL-2 2.5 ng/mL) [6]	0.11	-12.7	50.9	101	106
NK-YS (IL-2 2.5 ng/mL) [7]	-8.13	-3.11	72.6	72.9	87.9
NKL (IL-2 2.5 ng/mL) [8]	-4.74	5.25	97.5	99.9	101
SNK-6 (IL-2 2.5 ng/mL) [9]	-5.32	2.61	81.6	86.6	96.8
YT (IL-2 2.5 ng/mL) [10]	-6.99	-4.04	97.3	106	106
[1]	-6.33	-6.29	31.6	59	62.6
[11]	-8.19	4.79	8.62	16.3	23.7
[12]	-21.8	5.88	11	33.2	38.4
[13]	-7.02	11	16.4	18.7	25.8
[14]	-10	9.15	8.72	4.62	15.8

Details	drug sensitivity score
DERL-7 (IL-2 2.5 ng/mL) [16]	30.1
IMC-1 (IL-2 20 ng/mL) [17]	30.1
KAI3 (IL-2 2.5 ng/mL) [18]	20.7
KHYG-1 (IL-2 2.5 ng/mL) [19]	30.5
NK-92 (IL-2 2.5 ng/mL) [20]	24.3
NK-YS (IL-2 2.5 ng/mL) [21]	24.4
NKL (IL-2 2.5 ng/mL) [22]	30.9
SNK-6 (IL-2 2.5 ng/mL) [23]	27.4
YT (IL-2 2.5 ng/mL) [24]	29.8
[15]	15.5
[25]	2.75
[26]	6.94
[27]	4.98
[28]	0.39
